Earlier results in patent publication US11980186B2, “Preparation method of eucalyptol emulsion and application thereof in biopesticides” (Jiangnan University, priority 2021, dated 2024).
Converted amounts (≈) assume the structure as drawn.

System: B. tabaci
Conditions: literature value

O=C1CCC[C@@H]2[C@H]3CCCN4CCC[C@@H](CN12)[C@@H]34 [matrine]
LC50 against the B. tabaci: 13.35 µg/mL (≈ 53.8 µM)
